Values quoted from earlier work as cited in publication PMC6311893, “Computational prediction of plasma protein binding of cyclic peptides from small molecule experimental data using sparse modeling techniques” (BMC Bioinformatics, 2018).
Read-outs that look alike come from different tables or passages of the source. Non-standard residues stand in square brackets, D forms with d. Residues, ends and D or L forms follow the SMILES beside them. dPhe(4-Cl) = N[C@H](Cc1ccc(Cl)cc1)C(=O)O; d2Nal = N[C@H](Cc1ccc2ccccc2c1)C(=O)O; dCit = NC(=O)NCCC[C@@H](N)C(=O)O; d3Pal = N[C@H](Cc1cccnc1)C(=O)O

System: plasma protein
Conditions: cited from earlier work
[1] = fraction bound to plasma protein, small molecule dataset, sheet 1-SM, Set Dtr, ref Ingle et al.
[2] = fraction bound to plasma protein, small molecule dataset, sheet 1-SM, ref Ingle et al.
[3] = fraction bound to plasma protein, small molecule dataset, sheet 1-SM (Set Dte = test, Dtr = training), ref Ingle et al.

Fc1ccc([C@@H]2CCNC[C@H]2COc2ccc3c(c2)OCO3)cc1 [Paroxetine]
PPB (fb) [1]: 0.94

CCC1(CC)C(=O)NCC(C)C1=O (stereo not shown) [methyprylon]
PPB (fb) (plasma): 0.6

COc1ccc(C(CN(C)C)C2(O)CCCCC2)cc1 (stereo not shown) [Venlafaxine]
PPB (fb) (plasma): 0.27

CC1CCN(CCCC(=O)c2ccc(F)cc2)CC1 [melperone]
PPB (fb) [2]: 0.5

CN1CCC(=C2c3ccccc3CCc3cccnc32)CC1 [azatadine]
PPB (fb) [3]: 0.1

Cc1cccc([C@H](C)c2cnc[nH]2)c1C [Dexmedetomidine]
PPB (fb) [1]: 0.94

CCN1CCN(c2cc3c(cc2F)c(=O)c(C(=O)O)cn3-c2ccc(OC)cc2)CC1 [5cb (p-OCH3__N-C2H5)]
PPB (fb) [3]: 0.51

C=CC[N@@+]12CC[C@@]34c5ccccc5N5/C=C6/[C@H]7C[C@H]8[C@@]9(CC[N@@+]8(CC=C)C/C7=C/CO)c7ccccc7N(/C=C(/[C@@H](C[C@@H]31)/C(=C\CO)C2)[C@H]54)[C@@H]69 [alcuronium]
PPB (fb) (plasma): 0.4

COc1cnc(NS(=O)(=O)c2ccc(N)cc2)nc1 [sulfametoxydiazine]
PPB (fb) [2]: 0.83

O=C(O)CN1C(=O)[C@@H](N[C@@H](CCc2ccccc2)C(=O)O)CCc2ccccc21 [Benazeprilat]
PPB (fb) [3]: 0.95

C[C@H](N[C@@H](CCc1ccccc1)C(=O)O)C(=O)N1CCC[C@H]1C(=O)O [Enalaprilat]
PPB (fb) [3]: 0.46

CCN1CCCC1CNC(=O)c1cc(S(=O)(=O)CC)c(N)cc1OC (stereo not shown) [amisulpride]
PPB (fb) [3]: 0.16

CCCCCOC(=O)Nc1nc(=O)n([C@@H]2O[C@H](C)[C@@H](O)[C@H]2O)cc1F [capecitabine]
PPB (fb) [3]: 0.3

Cc1cccc(C)c1NC(=O)C1CCCCN1C (stereo not shown) [Mepivacaine]
PPB (fb) [3]: 0.77

[H]/N=C(/N)N/C(=N/[H])NCCc1ccccc1 [phenformin]
PPB (fb) [2]: 0.16

NCCCC[C@H](N[C@@H](CCc1ccccc1)C(=O)O)C(=O)N1CCC[C@H]1C(=O)O [Lisinopril]
PPB (fb) [1]: 0.05

COc1ccc2c(c1)c(CC(=O)OCC(=O)O)c(C)n2C(=O)c1ccc(Cl)cc1 [acemetacin]
PPB (fb) [3]: 0.9

O=C(O[C@@H]1C[C@@H]2C[C@H]3C[C@H](C1)N2CC3=O)c1c[nH]c2ccccc12 [dolasetron]
PPB (fb) [3]: 0.7

COC(C(=O)NC1C(=O)N2C1SC(C)(C)C2C(=O)O)c1ccc(Cl)c(F)c1 (stereo not shown) [penicillin44]
PPB (fb) [2]: 0.83

CC(=O)N[C@H](Cc1ccc2ccccc2c1)C(=O)N[C@H](Cc1ccc(Cl)cc1)C(=O)N[C@H](Cc1cccnc1)C(=O)N[C@@H](CO)C(=O)N[C@@H](Cc1ccc(O)cc1)C(=O)N[C@H](CCCNC(N)=O)C(=O)N[C@@H](CC(C)C)C(=O)N[C@@H](CCCNC(=N)N)C(=O)N1CCC[C@H]1C(=O)N[C@H](C)C(N)=O [Cetrorelix] (Ac-[d2Nal][dPhe(4-Cl)][d3Pal]SY[dCit]LRP[dA]-NH2)
PPB (fb) (human, plasma): 0.86

CC(Oc1cc(Cl)cc(Cl)c1)C(=O)NC1C(=O)N2C1SC(C)(C)C2C(=O)O (stereo not shown) [penicillin59]
PPB (fb) [2]: 0.97

COC(=O)Nc1nc2ccccc2[nH]1 [carbendazim]
PPB (fb) (plasma): 0.67

C=C1/C(=C\C=C2/CCC[C@]3(C)[C@@H]([C@H](C)CCCC(C)(C)O)CC[C@@H]23)C[C@@H](O)C[C@@H]1O [calcitriol]
PPB (fb): 0.95

N[C@@H](C(=O)N[C@@H]1C(=O)N2C(C(=O)O)=C(Cl)CS[C@H]12)c1ccccc1 [cefaclor]
PPB (fb) [3]: 0.25

O=C(C[S+]([O-])C(c1ccccc1)c1ccccc1)NO (stereo not shown) [adrafinil]
PPB (fb) (plasma): 0.8

Nc1ccc(S(=O)(=O)Nc2ccc(Cl)nn2)cc1 [sulfachlorpyridazine]
PPB (fb) [2]: 0.97

COc1cccc(-n2cc(C(=O)O)c(=O)c3cc(F)c(N4CCN(C)CC4)cc32)c1 [5ba(m-OCH3__N-CH3)]
PPB (fb) [3]: 0.54

COc1ccc2cc1Oc1cc3c(cc1OC)CC[N+](C)(C)[C@H]3Cc1ccc(cc1)Oc1c(OC)c(OC)cc3c1[C@@H](C2)[N+](C)(C)CC3 [Metocurine]
PPB (fb) (plasma): 0.35

CN1CCN(C(c2ccccc2)c2ccc(Cl)cc2)CC1 (stereo not shown) [chlorcyclizine]
PPB (fb) [3]: 0.87

COc1cccc(C2(O)CCCCC2CN(C)C)c1 (stereo not shown) [Tramadol]
PPB (fb) (plasma): 0.16

CN1CC(=O)N2[C@H](c3ccc4c(c3)OCO4)c3[nH]c4ccccc4c3C[C@@H]2C1=O [tadalafil]
PPB (fb) [2]: 0.94

CCCN1C[C@H](CSC)C[C@@H]2c3cccc4[nH]cc(c34)C[C@H]21 [pergolide]
PPB (fb) [2]: 0.9

C=CCc1ccccc1OCC(O)CNC(C)C (stereo not shown) [Alprenolol]
PPB (fb) [1]: 0.81

CCCN(CCC)S(=O)(=O)c1ccc(C(=O)O)cc1 [Probenecid]
PPB (fb) [3]: 0.88

O=C(c1ccc(OCCN2CCCCC2)cc1)c1c(-c2ccc(O)cc2)sc2cc(O)ccc12 [raloxifene]
PPB (fb) [2]: 0.97

Cc1cc2c(OCC(O)CNC(C)C)cccc2[nH]1 (stereo not shown) [mepindolol]
PPB (fb) [2]: 0.5

O=NN(CCCl)C(=O)NCCCl [Carmustine (BCNU)]
PPB (fb) (plasma): 0.77

CC(=O)NC(CS)C(=O)O (stereo not shown) [Acetylcysteine__ N-]
PPB (fb) [1]: 0.83

O=C1CCc2cc(OCCCCc3nnnn3C3CCCCC3)ccc2N1 [cilostazol]
PPB (fb) [3]: 0.96

CC(C)c1cccc(C(C)C)c1O [Propofol]
PPB (fb) (plasma): 0.98

CCC1(C2=CCCCC2)C(=O)NC(=O)NC1=O [cyclobarbital]
PPB (fb) (plasma): 0.7

demeclocycline
PPB (fb) (plasma): 0.54

C[C@@H](O)[C@H]1C(=O)N2C(C(=O)O)=C(S[C@H]3C[C@@H](C(=O)N4CC[C@H](NC(=O)CNC(=N)N)C4)N(C)C3)[C@H](C)[C@H]12 [Tomopenem]
PPB (fb) [3]: 0.09

CC(=O)NC(CS)C(=O)O (stereo not shown) [n-acetylcysteine]
PPB (fb) [2]: 0.83

CC(=O)[C@H]1CC[C@H]2[C@@H]3CC[C@@H]4C[C@H](O)CC[C@]4(C)[C@H]3CC[C@]12C [Eltanolone]
PPB (fb) (plasma): 0.99

CC(C)NCC(O)COc1cccc2[nH]ccc12 (stereo not shown) [Pindolol]
PPB (fb) [1]: 0.48

NC(N)=Nc1nc(CSCCC(N)=NS(N)(=O)=O)cs1 [Famotidine]
PPB (fb) [1]: 0.16

CCOC(=O)C1(c2ccccc2)CCN(CCC(O)c2ccccc2)CC1 (stereo not shown) [phenoperidine]
PPB (fb) (plasma): 0.8

lacidipine
PPB (fb) (plasma): 0.95

COc1cccc(OC)c1C(=O)N[C@@H]1C(=O)N2[C@@H]1SC(C)(C)[C@@H]2C(=O)O [Methicillin]
PPB (fb) [1]: 0.48

Nc1ccn(C[C@@H](CO)OCP(=O)(O)O)c(=O)n1 [Cidofovir]
PPB (fb) [1]: 0.02

COC(C(=O)NC1C(=O)N2C1SC(C)(C)C2C(=O)O)c1cccc(Cl)c1 (stereo not shown) [penicillin40]
PPB (fb) [2]: 0.83

CN1C(=O)NC(=O)C(C)(C2=CCCCC2)C1=O (stereo not shown) [Hexobarbital]
PPB (fb) (plasma): 0.47

COc1ccc(C(=O)N2CCCC2=O)cc1 [aniracetam]
PPB (fb) [3]: 0.66

O=C1CCC(N2C(=O)c3ccccc3C2=O)C(=O)N1 (stereo not shown) [Thalidomide]
PPB (fb) [2]: 0.57

COc1ccccc1Oc1c(NS(=O)(=O)c2ccc(C(C)C)cn2)nc(-c2ccnc(-c3nnn[nH]3)c2)nc1OCCO [Tezosentan]
PPB (fb) [2]: 0.99

CC/C(=C(\c1ccccc1)c1ccc(OCCN(C)C)cc1)c1ccccc1 [tamoxifen]
PPB (fb) [2]: 0.99

CC(C)CC(N(C)C)C1(c2ccc(Cl)cc2)CCC1 (stereo not shown) [sibutramine]
PPB (fb) (plasma): 0.95

NC(=O)N1c2ccccc2CC(O)c2ccccc21 (stereo not shown) [10-hydroxycarbazepine]
PPB (fb) [3]: 0.62

Rolitetracycline
PPB (fb) (plasma): 0.5

CC1(C)C[C@@H]1C(=O)N/C(=C\CCCCSC[C@H](N)C(=O)O)C(=O)O [Cilastatin]
PPB (fb) (plasma): 0.37

COC(C(=O)NC1C(=O)N2C1SC(C)(C)C2C(=O)O)c1cccc(F)c1 (stereo not shown) [penicillin45]
PPB (fb) [2]: 0.65

COc1ccc(NS(=O)(=O)c2ccc(N)cc2)nn1 [sulfamethoxypyridazine]
PPB (fb) [3]: 0.75

CC(Cc1ccccc1)NCCC(c1ccccc1)c1ccccc1 (stereo not shown) [prenylamine]
PPB (fb) [2]: 0.97

Fc1ccccc1C1=NCC(=S)N(CC(F)(F)F)c2ccc(Cl)cc21 [quazepam]
PPB (fb) (plasma): 0.95

CCCC(N)C(=O)NC1C(=O)N2C1SC(C)(C)C2C(=O)O (stereo not shown) [penicillin12]
PPB (fb) [2]: 0.33

COc1cc(C)c(/C=C/C(C)=C/C=C/C(C)=C/C(=O)O)c(C)c1C [acitretin]
PPB (fb): 0.99

CCOC(=O)NC1=C(N2CC2)C(=O)C(NC(=O)OCC)=C(N2CC2)C1=O [diaziquone]
PPB (fb) [3]: 0.79

CC1(C)S[C@@H]2[C@H](/N=C/N3CCCCCC3)C(=O)N2[C@H]1C(=O)O [amdinocillin]
PPB (fb) [3]: 0.14

CC(=O)N(CC(O)CO)c1c(I)c(C(=O)NCC(O)CO)c(I)c(C(=O)NCC(O)CO)c1I (stereo not shown) [Iohexol]
PPB (fb) [1]: 0.02

nilvadipine
PPB (fb) (plasma): 0.99

CC(C)(C)NCC(O)c1ccc(O)c(CO)c1 (stereo not shown) [Albuterol (salbutamol)]
PPB (fb) [1]: 0.09

CC(C)(C)NCC(O)c1cc(O)cc(O)c1 (stereo not shown) [Terbutaline]
PPB (fb) [2]: 0.23

CC(C)(O)c1ccccc1CC[C@@H](SCC1(CC(=O)O)CC1)c1cccc(/C=C/c2ccc3ccc(Cl)cc3n2)c1 [Montelukast]
PPB (fb) [3]: 0.99

C/N=C(\NC)NCc1ccccc1 [bethanidine]
PPB (fb) [3]: 0.1

O=C(O)c1cn(-c2cccc(F)c2)c2cc(N3CCNCC3)c(F)cc2c1=O [2b(m-F)]
PPB (fb) [3]: 0.51

Cc1c(O)cccc1C(=O)N[C@@H](CSc1ccccc1)[C@H](O)CN1C[C@H]2CCCC[C@H]2C[C@H]1C(=O)NC(C)(C)C [nelfinavir]
PPB (fb) [2]: 0.99

CC[C@@]1(O)C[C@H](O[C@H]2C[C@H](N(C)C)[C@H](O[C@H]3C[C@H](O)[C@H](O[C@H]4CCC(=O)[C@H](C)O4)[C@H](C)O3)[C@H](C)O2)c2c(cc3c(c2O)C(=O)c2c(O)cccc2C3=O)[C@H]1C(=O)OC [aclarubicin]
PPB (fb) (plasma): 0.43

CC12CCC3c4ccc(O)cc4CCC3C1CCC2O (stereo not shown) [17-a-estradiol]
PPB (fb) [3]: 0.98

CCN(C(C)=O)c1cccc(-c2ccnc3c(C#N)cnn23)c1 [Zaleplon]
PPB (fb) (plasma): 0.6

CCc1c2c(nc3ccc(OC(=O)N4CCC(N5CCCCC5)CC4)cc13)-c1cc3c(c(=O)n1C2)COC(=O)[C@]3(O)CC [Irinotecan]
PPB (fb) [3]: 0.57

Cc1ncc2c(c1O)COC2c1ccc(Cl)cc1 (stereo not shown) [cicletanine]
PPB (fb) [3]: 0.93
